Assay results reported in PMC3914206.

Legend:
Assay type in all cases: binding
panel of 442 kinases [1] = target: T1, panel of 442 kinases (Homo sapiens, UniProt Q9H2G2); conditions: kinase SLK; compound concentration 10 µM
T1 construct: purchased KINOMEscan
Excerpt: (§1) We assessed the selectivity of members of this scaffold using the KINOMEscan methodology across a near comprehensive panel of 442 kinases [[18,27]].

panel of 442 kinases [2] = target: T2, panel of 442 kinases (Homo sapiens, UniProt O14733); conditions: Compound Concentration 10 µM
T2 construct: purchased KINOMEscan
T2 sequence (O14733 1-419): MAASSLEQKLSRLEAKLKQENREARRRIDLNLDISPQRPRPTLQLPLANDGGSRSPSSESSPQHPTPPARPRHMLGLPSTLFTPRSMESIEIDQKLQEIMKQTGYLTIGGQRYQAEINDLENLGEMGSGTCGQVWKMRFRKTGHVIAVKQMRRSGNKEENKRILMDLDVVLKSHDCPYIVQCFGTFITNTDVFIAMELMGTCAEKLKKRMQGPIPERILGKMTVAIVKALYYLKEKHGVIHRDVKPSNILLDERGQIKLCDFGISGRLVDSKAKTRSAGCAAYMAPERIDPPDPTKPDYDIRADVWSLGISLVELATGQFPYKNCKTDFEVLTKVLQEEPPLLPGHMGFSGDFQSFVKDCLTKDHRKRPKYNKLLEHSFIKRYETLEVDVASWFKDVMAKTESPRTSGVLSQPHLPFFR
Excerpt: as §1

panel of 442 kinases [3] = target: T3, panel of 442 kinases (Homo sapiens, UniProt P42336, H1047L); conditions: Compound Concentration 10 µM
T3 construct: purchased KINOMEscan
T3 sequence (P42336 whole entry H1047L): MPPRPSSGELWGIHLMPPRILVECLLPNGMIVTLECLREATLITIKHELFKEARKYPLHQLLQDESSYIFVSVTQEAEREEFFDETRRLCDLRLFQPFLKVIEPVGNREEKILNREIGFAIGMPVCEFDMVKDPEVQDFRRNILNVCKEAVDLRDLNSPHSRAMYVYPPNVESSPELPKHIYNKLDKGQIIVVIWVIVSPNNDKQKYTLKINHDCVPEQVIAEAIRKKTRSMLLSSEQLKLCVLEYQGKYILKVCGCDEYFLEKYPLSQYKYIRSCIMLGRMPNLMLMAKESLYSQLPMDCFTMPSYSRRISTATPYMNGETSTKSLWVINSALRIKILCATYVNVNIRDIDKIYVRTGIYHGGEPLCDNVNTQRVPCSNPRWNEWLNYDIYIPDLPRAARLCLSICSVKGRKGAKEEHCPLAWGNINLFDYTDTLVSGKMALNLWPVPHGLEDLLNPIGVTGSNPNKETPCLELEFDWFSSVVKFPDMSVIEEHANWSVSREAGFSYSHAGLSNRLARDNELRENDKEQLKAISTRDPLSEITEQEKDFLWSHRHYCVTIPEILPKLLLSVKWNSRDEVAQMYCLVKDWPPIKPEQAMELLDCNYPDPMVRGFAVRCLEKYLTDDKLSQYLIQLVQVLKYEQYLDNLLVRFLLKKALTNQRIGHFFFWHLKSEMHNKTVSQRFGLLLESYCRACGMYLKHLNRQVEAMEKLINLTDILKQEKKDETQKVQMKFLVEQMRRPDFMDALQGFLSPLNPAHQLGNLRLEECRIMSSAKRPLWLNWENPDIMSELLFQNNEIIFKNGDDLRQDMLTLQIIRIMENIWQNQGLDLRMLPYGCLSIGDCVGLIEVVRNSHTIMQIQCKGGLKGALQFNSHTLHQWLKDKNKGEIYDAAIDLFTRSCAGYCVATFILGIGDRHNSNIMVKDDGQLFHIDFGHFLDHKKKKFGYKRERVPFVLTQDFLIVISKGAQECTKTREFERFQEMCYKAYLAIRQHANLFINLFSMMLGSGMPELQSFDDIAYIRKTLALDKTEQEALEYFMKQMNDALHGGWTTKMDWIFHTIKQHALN
Excerpt: as §1

T1 sequence (Q9H2G2 whole entry): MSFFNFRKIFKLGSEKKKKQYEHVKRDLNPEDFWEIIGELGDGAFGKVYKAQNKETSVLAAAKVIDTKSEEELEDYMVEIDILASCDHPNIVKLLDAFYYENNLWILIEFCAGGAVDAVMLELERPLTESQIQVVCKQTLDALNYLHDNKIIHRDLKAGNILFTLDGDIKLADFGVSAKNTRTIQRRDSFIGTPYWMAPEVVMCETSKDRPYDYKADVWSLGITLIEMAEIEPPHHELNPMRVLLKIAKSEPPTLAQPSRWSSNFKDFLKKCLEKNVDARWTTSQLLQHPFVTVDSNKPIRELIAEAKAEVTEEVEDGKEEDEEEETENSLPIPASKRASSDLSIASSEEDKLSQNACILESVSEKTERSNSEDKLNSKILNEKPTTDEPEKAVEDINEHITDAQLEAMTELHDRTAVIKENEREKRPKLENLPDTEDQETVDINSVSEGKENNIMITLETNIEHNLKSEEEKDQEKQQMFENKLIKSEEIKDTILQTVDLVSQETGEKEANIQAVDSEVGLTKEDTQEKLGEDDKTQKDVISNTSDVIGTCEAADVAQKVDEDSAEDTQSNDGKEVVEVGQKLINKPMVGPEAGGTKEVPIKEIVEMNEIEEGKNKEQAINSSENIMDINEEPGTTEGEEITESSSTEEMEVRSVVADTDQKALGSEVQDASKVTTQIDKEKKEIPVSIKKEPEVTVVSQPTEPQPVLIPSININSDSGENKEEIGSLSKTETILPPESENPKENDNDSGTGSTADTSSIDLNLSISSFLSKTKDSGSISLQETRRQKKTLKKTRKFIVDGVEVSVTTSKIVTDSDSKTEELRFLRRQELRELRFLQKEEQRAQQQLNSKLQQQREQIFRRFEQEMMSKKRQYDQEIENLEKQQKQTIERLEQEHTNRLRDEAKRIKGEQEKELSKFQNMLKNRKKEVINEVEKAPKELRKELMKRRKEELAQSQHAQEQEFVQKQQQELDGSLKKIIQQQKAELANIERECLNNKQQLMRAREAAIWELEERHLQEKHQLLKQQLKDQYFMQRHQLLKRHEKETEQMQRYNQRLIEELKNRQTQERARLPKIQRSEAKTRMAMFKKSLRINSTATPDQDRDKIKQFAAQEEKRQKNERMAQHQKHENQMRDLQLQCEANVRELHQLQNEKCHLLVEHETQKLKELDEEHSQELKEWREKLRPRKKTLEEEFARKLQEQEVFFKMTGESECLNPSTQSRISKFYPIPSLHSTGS

Row | SMILES | % Ctrl, SLK (panel of 442 kinases [1]) [% Ctrl] | KINOMEscan: MKK7 (panel of 442 kinases [2]) | KINOMEscan: PIK3CA(H1047L) (panel of 442 kinases [3])
1 | CCOc1cc(C(=O)N2CCC(N3CCN(C)CC3)CC2)ccc1Nc1ncc2c(n1)N(C1CCCC1)c1ccccc1C(=O)N2C [Compound 26] | 100 | 88 | 90
2 | COc1cc(C(=O)N2CCC(N3CCN(C)CC3)CC2)ccc1Nc1ncc2c(n1)N(C1CCCC1)c1ccccc1C(=O)N2C [Compound 25, 11-cyclopentyl-2-((2-methoxy-4-(4-(4-methylpiperazin-1-yl)piperidine-1-carbonyl)phenyl)amino)-5-methyl-5H-benzo[e]pyrimido[5,4-b][1,4]diazepin-6(11H)-one] | 100 | 100 | 100
3 | COc1cc(C(=O)N2CCC(N3CCN(C)CC3)CC2)ccc1Nc1ncc2c(n1)N1CCc3cccc(c31)C(=O)N2C [Compound 24] | 49 | – | 94
4 | COc1cc(C(=O)N2CCC(N3CCN(C)CC3)CC2)ccc1Nc1ncc2c(n1)N(C)c1ccccc1C(=O)N2C [15 (LRRK2-IN-1)] | 100 | 100 | 20
